Test results reported in patent publication US7375092B2, “Lunasin peptides” (Regents of the University of California, priority 1997, dated 2008).

B1: large subunit peptide: 77 amino acid (8 kDa) large subunit (alisin) of Gm2S-1, residues 82-158 of SEQ ID NO:2 (protein)
chain: EGKDEDEEEEGHMQKCCTEMSELRSPKCQCKALQKIMENQSEELEEKQKKKMEKELINLATMCRFGPMIQCDLSSDD

Assays:
[1] = test system: cotyledon and endosperm parynchematous cells; test: Plant transformation: mitotic disruption in developing seeds; assay type: in vivo; settings: deletion mutant and synthetic fusion peptides
Excerpt: Cereal endosperm and legume cotyledon make up at least 85% of the seed weight and that seed size is genetically correlated to crop yield by at least 80%. […] To accomplish this, the 5′ regulatory regions of soybean conglycinin gene (a 170 bp DNA sequence element that is 200 nucleotides upstream of the transcription start site conferring cotyledon-specific expression (Chen et al., 1988, EMBO J 7:297) and rice glutelin gene (a 121 bp DNA sequence element that is 437/317 nucleotide upstream of the transcription start site conferring endosperm-specific expression (Yoshihara and Takaiwa, 1996, Plant Cell Physiol 37:107) are inserted into the −90 position of the CaMV 35S promoter which are then fused to the DNA fragments encoding the in-frame translation of lunasin and lunasin-del peptides. The DNA constructs are ligated to the binary vector, pKYLX71 (Lloyd et al., 1992, Science 258:1773) for Agrobacterium transformation and to pGEM-3Zf(+) vector (Promega) for biolistic transformation (Cho et al., 1995, Plant Mol Biol Rept 13:255). Agrobacterium-mediated transformation using the cotyledon-specific DNA constructs is utilized for most dicots, i.e. legumes (soybean, peas, peanuts and kidney beans), Arabidopsis thaliana and tobacco. For monocots like the cereal grain crops, wheat, rice, barley, rye and corn, the biolistic method of transformation is utilized using the endosperm-specific DNA constructs. The expression of the lunasin peptide in the developing seeds of all these plant species are monitored by immunolocalization using antibodies derived specifically to the carboxyl end epitope of the lunasin peptide.

[2] = test system: mammalian cells; test: Mitotic disruption by peptide panel in mammalian studies; assay type: cell-based; settings: deletion mutant and synthetic fusion peptides
Excerpt: Similar mitotic disruption is observed using a large panel of lunasin and alisin deletion mutant peptides (lunasin-del-n and alisin-del-n) and lunasin/alisin-like synthetic peptides (Gm2S-1-syn-n). Exemplary active lunasin-del peptides in these mammalian studies include (again using N→C nomenclature convention): • lunasin-del-1: MRG—residues 57-64 of SEQ ID NO:2 fusion protein • lunasin-del-2: α-tubulin—residues 54-64 of SEQ ID NO:2 fusion protein • lunasin-del-3: β-tubulin—residues 48-63 of SEQ ID NO:2 fusion protein • lunasin-del-4: MAP2 —residues 26-64 of SEQ ID NO:2 fusion protein • lunasin-del-5: Mapmodulin—residues 57-64 of SEQ ID NO:2 fusion protein • lunasin-del-6: GFP—residues 54-64 of SEQ ID NO:2 fusion protein • lunasin-del-7: MAP4—residues 44-63 of SEQ ID NO:2 fusion protein • lunasin-del-8: FLAGG—residues 30-64 of SEQ ID NO:2 fusion protein • lunasin-del-9: CYCLIN A—residues 57-64 of SEQ ID NO:2 fusion protein • lunasin-del-10: CYCLIN B1—residues 54-64 of SEQ ID NO:2 fusion protein • lunasin-del-11: CYCLIN B2—residues 40-63 of SEQ ID NO:2 fusion protein • lunasin-del-12: CYCLIN B3—residues 34-64 of SEQ ID NO:2 fusion protein • lunasin-del-13: SH2—octa-aspartate fusion protein • lunasin-del-14: SH3—octa-aspartate fusion protein • lunasin-del-15: SEQ ID NO:2, residues 48-55—MRG-octa-aspartate fusion protein • lunasin-del-16: SEQ ID NO:2, residues 48-55—SEQ ID NO:2, residues 48-55—octa-aspartate fusion protein • lunasin-del-17: MRG-tetrta-aspartate-tetra glutamate fusion protein • lunasin-del-18: SEQ ID NO:2, residues 48-55-octa-glutamate fusion protein • lunasin-del-19: SEQ ID NO:2, residues 1-21-MRG-deca-glutamate fusion protein • lunasin-del-20: SEQ ID NO:2, residues 48-55—SEQ ID NO:2, residues 48-55—tetra-aspartate-tetra glutamate fusion protein
Alternatively, the peptides are introduced indirectly by expression within the targeted cell. Such expression may be effected by transciently or by upregulation of a stably introduced peptide-encoding gene.

[3] = test system: DH5 E. coli cells; test: Expression of Gm2S-1 peptides in bacteria: disruption of bacterial cell division (filamentation); assay type: cell-based; settings: basal expression from pFLAG-1 in DH5 E. coli cells
Excerpt: We sought to produce purified Gm2S-1-derived peptides, including lunasin and alisin peptides, for allergenicity tests using bacterial expression vectors. Initially, PCR amplified fragments that encode lunasin and a lunasin deletion (lunasin-del) mutant (with the 9 aspartic acid deleted from the carboxyl end) were first cloned into pGEM-T (Promega) PCR cloning vector, then cut with EcoR1 and HindIII to release lunasin and lunasin-del gene fragment which were then subcloned into pFLAG-1 bacterial expression vector (Kodak/IBI). Lunasin and lunasin-del pFLAG constructs were used to transform competent DH5 E. coli cells using standard heat shock protocol.
Similar mitotic disruption is observed using a large panel of lunasin and alisin deletion mutant peptides (lunasin-del-n and alisin-del-n) and lunasin/alisin-like synthetic peptides (Gm2S-1-syn-n). […]

Molecule	mitotic disruption, active peptides in plant transformation studies [1]	mitotic disruption, active peptides in mammalian studies [2]	formation of elongated and non-septated bacterial filaments [3]
lunasin-del-19: SEQ ID NO:2, residues 1-21—MRG-deca-glutamate fusion protein (MTKFTILLISLLFCIAHTCSA; C-terminal MRG and deca-glutamate)	active	active	–
lunasin-del-18: SEQ ID NO:2, residues 48-55—octa-glutamate fusion protein (MEKIQGRG; C-terminal octa-glutamate)	active	active	–
lunasin-del-15: SEQ ID NO:2, residues 48-55—MRG-octa-aspartate fusion protein (MEKIQGRG; C-terminal MRG and octa-aspartate)	active	active	–
B1	–	–	not detected
